In US12435060B2, “Acylamino bridged heterocyclic compound, and composition and application thereof” (BEIJING SCITECH-MQ PHARMACEUTICALS LIMITED, priority 2019, dated 2025):

tested on: HT29 cells; experiment: Inhibition of cell necrosis (CCK8 method), induced programmed necrosis of HT29 cells; assay type: cell-based; details: Homo sapiens, HT-29; rescue from necrosis induced by TNF-α 20 ng/mL, AT-406 1 μM, Z-VAD-FMK 20 μM; 16-20 hours; CCK-8, OD 450 nm
Experimental: Assay Example 2. Assay Method for Compounds Inhibiting Cell Necrosis (CCK8 Method)
In this assay example 2, under the condition of inducing programmed cell necrosis, different concentrations of the test compounds were added to test the IC50 of the rescue effect of the test compounds on the programmed necrosis.
• Compounds: Dissolved in DMSO to make a 10 mM solution; • TNF-α: The initial concentration was 100 μg/mL; • Z-VAD-FMK: Dissolved in DMSO to make a 10 mM solution; • AT-406: Dissolved in DMSO to make a 10 mM solution. I. Experimental Steps • 1) Compound dilution: All test compounds were dissolved in DMSO to prepare a 10 mM stock solution, and the first concentration gradient dilution of the test compounds was completed in DMSO. The gradient dilution factor was 4 times and 9 concentration gradients were made; A 40-fold overall dilution of all compounds was completed in the cell culture medium, and the resulting compound was 10× compound, which will be added to the wells of the 96-well plate containing cells, so that the final cell culture medium was 1× the designed final concentration. The general drug design is 9 concentration gradients, of which the highest final concentration is 25000 nM, the lowest concentration after 4-fold dilution of 9 concentrations is 0.38 nM, and the final concentration of DMSO in all wells is 0.25%. The compound dilution process is shown in FIG. 3. • 2) HT 29 cells in good growth condition were selected, trypsinized, the cells was collected by centrifugation, resuspended in McCOY's 5A complete medium (containing 10% FBS) and counted, and the number of cells and survival rate were recorded. • 3) Cells were inoculated to the 60 wells in the middle of the 96-well culture plate at a density of 12000 cells/80 μL/well, surrounding wells were filled with sterile water, and incubated overnight. • 4) 10 μL of the 10× compound diluted with the medium was added to the assay wells, 10 μL of McCOY's 5A complete medium containing 2.5% DMSO was added to the inducer-free wells and the control wells, mixed and shaked, and incubated for 30 minutes. • 5) Then 10 μL of inducer mixture (TNF-α, AT-406, Z-VAD-FMK with the final concentration of 20 ng/mL, 1 μM, 20 μM) was added into the assay wells and control wells. 10 μL McCOY's 5A complete medium was added to wells without inducer. Cells were cultured in an incubator with 5% CO2, at 37° C. • 6) After culturing for 16-20 hours, 10 μL of CCK-8 reagent was added to each well, and incubated for about 2 hours; • 7) The OD value was read at 450 nm on the multi-function plate reader. • 8) Data processing: Inhibition rate of necrosis (%)=100*(X−B)/(A−B) • A: The OD values of the wells without inducer (containing cells, CCK-8, without compound and inducer); • […]: OD values of assay wells (containing cells, CCK-8, compound, inducer); • B: OD values of control wells (containing cells, CCK-8, inducer, without compound). Then the value were imported into Graphpad Prism5 software for curve fitting and the IC50 values were calculated.

Row | SMILES | IC50
1 | Cc1ccc(OCCOC(C)(C)C)cc1-c1ccnc(NC(=O)c2nnc(Cc3ccccc3)[nH]2)c1 [Example 64, 5-benzyl-N-(4-(5-(2-(tert-butoxy)ethoxy)-2-methylphenyl)pyridin-2-yl)-4H-1,2,4-triazole-3-carboxamide] | ≤ 100 nM
2 | Cc1ccc(OC2CCOCC2)cc1-c1ccnc(NC(=O)c2nnc(Cc3ccccc3)[nH]2)c1 [Example 65, 5-benzyl-N-(4-(2-methyl-5-((tetrahydro-2H-pyran-4-yl)oxy)phenyl)pyridin-2-yl)-4H-1,2,4-triazole-3-carboxamide] | ≤ 100 nM
3 | Cc1ccc(OCC2COC2)cc1-c1ccnc(NC(=O)c2nnc(Cc3ccccc3)[nH]2)c1 [Example 66, 5-benzyl-N-(4-(2-methyl-5-(oxetan-3-ylmethoxy)phenyl)pyridin-2-yl)-4H-1,2,4-triazole-3-carboxamide] | ≤ 100 nM
4 | Cc1ccc(OCC2CCOCC2)cc1-c1ccnc(NC(=O)c2nnc(Cc3ccccc3)[nH]2)c1 [Example 67, 5-benzyl-N-(4-(2-methyl-5-((tetrahydro-2H-pyran-4-yl)methoxy)phenyl)pyridin-2-yl)-4H-1,2,4-triazole-3-carboxamide] | ≤ 100 nM
5 | Cc1ccc(OCCF)cc1-c1ccnc(NC(=O)c2nnc(Cc3ccccc3)[nH]2)c1 [Example 68, 5-benzyl-N-(4-(5-(2-fluoroethoxy)-2-methylphenyl)pyridin-2-yl)-4H-1,2,4-triazole-3-carboxamide] | 100 to 1000 nM
6 | Cc1ccc(OCCC2CC2)cc1-c1ccnc(NC(=O)c2nnc(Cc3ccccc3)[nH]2)c1 [Example 69, 5-benzyl-N-(4-(5-(2-cyclopropylethoxy)-2-methylphenyl)pyridin-2-yl)-4H-1,2,4-triazole-3-carboxamide] | ≤ 100 nM
7 | Cc1ccc(OCCOCC(C)C)cc1-c1ccnc(NC(=O)c2nnc(Cc3ccccc3)[nH]2)c1 [Example 70, 5-benzyl-N-(4-(5-(2-isobutoxyethoxy)-2-methylphenyl)pyridin-2-yl)-4H-1,2,4-triazole-3-carboxamide] | ≤ 100 nM
8 | Cc1ccc(OCCN2CCCC2=O)cc1-c1ccnc(NC(=O)c2nnc(Cc3ccccc3)[nH]2)c1 [Example 71, 5-benzyl-N-(4-(2-methyl-5-(2-(2-oxopyrrolidin-1-yl)ethoxy)phenyl)pyridin-2-yl)-4H-1,2,4-triazole-3-carboxamide] | ≤ 100 nM
9 | CSCCCOc1ccc(C)c(-c2ccnc(NC(=O)c3nnc(Cc4ccccc4)[nH]3)c2)c1 [Example 72, 5-benzyl-N-(4-(2-methyl-5-(3-(methylthio)propoxy)phenyl)pyridin-2-yl)-4H-1,2,4-triazole-3-carboxamide] | ≤ 100 nM
10 | Cc1ccc(OCCCS(C)(=O)=O)cc1-c1ccnc(NC(=O)c2nnc(Cc3ccccc3)[nH]2)c1 [Example 73, 5-benzyl-N-(4-(2-methyl-5-(3-(methylsulfonyl)propoxy)phenyl)pyridin-2-yl)-4H-1,2,4-triazole-3-carboxamide] | ≤ 100 nM
11 | CC(C)(C)OCCOc1ccc(C#N)c(-c2ccnc(NC(=O)c3nnc(Cc4ccccc4)[nH]3)c2)c1 [Example 74] | 100 to 1000 nM
12 | Cc1ccc(OCCOC(C)(C)C)cc1-c1ccnc(NC(=O)c2nnc(CC3CCCC3)[nH]2)c1 [Example 75, N-(4-(5-(2-(tert-butoxy)ethoxy)-2-methylphenyl)pyridin-2-yl)-5-(cyclopentylmethyl)-4H-1,2,4-triazole-3-carboxamide] | ≤ 100 nM
13 | Cc1ccc(OCCOC(C)(C)C)cc1-c1ccnc(NC(=O)c2nnc(CC3CCCC3)o2)c1 [Example 76] | > 10000 nM
14 | Cc1ccc(OCCOC(C)(C)C)cc1-c1ccnc(NC(=O)c2nnc(CC3CCCCC3)[nH]2)c1 [Example 77, N-(4-(5-(2-(tert-butoxy)ethoxy)-2-methylphenyl)pyridin-2-yl)-5-(cyclohexylmethyl)-4H-1,2,4-triazole-3-carboxamide] | ≤ 100 nM
15 | C=Cc1ccc(OCCOC(C)(C)C)cc1-c1ccnc(NC(=O)c2nnc(Cc3ccccc3)[nH]2)c1 [Example 78, 5-benzyl-N-(4-(5-(2-(tert-butoxy)ethoxy)-2-vinylphenyl)pyridin-2-yl)-4H-1,2,4-triazole-3-carboxamide] | ≤ 100 nM
16 | Cc1ccc(OCC2CCOCC2)cc1-c1ccnc(NC(=O)c2nnc(CC3CCCC3)[nH]2)c1 [Example 79, 5-(cyclopentylmethyl)-N-(4-(2-methyl-5-((tetrahydro-2H-pyran-4-yl)methoxy)phenyl)pyridin-2-yl)-4H-1,2,4-triazole-3-carboxamide] | ≤ 100 nM
17 | Cc1ccc(OCC2CCOCC2)cc1-c1ccnc(NC(=O)c2nnc(CC3CCCCC3)[nH]2)c1 [Example 80, 5-(cyclohexylmethyl)-N-(4-(2-methyl-5-((tetrahydro-2H-pyran-4-yl)methoxy)phenyl)pyridin-2-yl)-4H-1,2,4-triazole-3-carboxamide] | ≤ 100 nM
18 | Cc1ccc(OCCCOC2CCC2)cc1-c1ccnc(NC(=O)c2nnc(Cc3ccccc3)[nH]2)c1 [Example 81, 5-benzyl-N-(4-(5-(3-cyclobutoxypropoxy)-2-methylphenyl)pyridin-2-yl)-4H-1,2,4-triazole-3-carboxamide] | ≤ 100 nM
19 | C=CCOc1ccc(C)c(-c2ccnc(NC(=O)c3nnc(Cc4ccccc4)[nH]3)c2)c1 [Example 82, N-(4-(5-(allyloxy)-2-methylphenyl)pyridin-2-yl)-5-benzyl-4H-1,2,4-triazole-3-carboxamide] | 100 to 1000 nM
20 | Cc1ccc(OCCCOC(C)C)cc1-c1ccnc(NC(=O)c2nnc(Cc3ccccc3)[nH]2)c1 [Example 83, 5-benzyl-N-(4-(5-(3-isopropoxypropoxy)-2-methylphenyl)pyridin-2-yl)-4H-1,2,4-triazole-3-carboxamide] | ≤ 100 nM
21 | Cc1ccc(OCCCN2CCCCC2=O)cc1-c1ccnc(NC(=O)c2nnc(Cc3ccccc3)[nH]2)c1 [Example 84] | ≤ 100 nM
22 | COCCOCCOc1ccc(C)c(-c2ccnc(NC(=O)c3nnc(Cc4ccccc4)[nH]3)c2)c1 [Example 85, 5-benzyl-N-(4-(5-(2-(2-methoxyethoxy)ethoxy)-2-methylphenyl)pyridin-2-yl)-4H-1,2,4-triazole-3-carboxamide] | ≤ 100 nM
23 | Cc1ccc(OC2COC2)cc1-c1ccnc(NC(=O)c2nnc(Cc3ccccc3)[nH]2)c1 [Example 86, 5-benzyl-N-(4-(2-methyl-5-(oxetan-3-yloxy)phenyl)pyridin-2-yl)-4H-1,2,4-triazole-3-carboxamide] | ≤ 100 nM
24 | Cc1ccc(OCCC2CCOCC2)cc1-c1ccnc(NC(=O)c2nnc(Cc3ccccc3)[nH]2)c1 [Example 87, 5-benzyl-N-(4-(2-methyl-5-(2-(tetrahydro-2H-pyran-4-yl)ethoxy)phenyl)pyridin-2-yl)-4H-1,2,4-triazole-3-carboxamide] | ≤ 100 nM
25 | Cc1ccc(OCCC2CCOCC2)cc1-c1ccnc(NC(=O)c2nnc(CC3CCCC3)[nH]2)c1 [Example 88, 5-(cyclopentylmethyl)-N-(4-(2-methyl-5-(2-(tetrahydro-2H-pyran-4-yl)ethoxy)phenyl)pyridin-2-yl)-4H-1,2,4-triazole-3-carboxamide] | ≤ 100 nM
26 | Cc1ccc(OCCC2CCOCC2)cc1-c1ccnc(NC(=O)c2nnc(CC3CCCCC3)[nH]2)c1 [Example 89, 5-(cyclohexylmethyl)-N-(4-(2-methyl-5-(2-(tetrahydro-2H-pyran-4-yl)ethoxy)phenyl)pyridin-2-yl)-4H-1,2,4-triazole-3-carboxamide] | ≤ 100 nM
27 | Cc1ccc(OCCCC(C)C#N)cc1-c1ccnc(NC(=O)c2nnc(Cc3ccccc3)[nH]2)c1 (centres unmarked) [Example 90, 5-benzyl-N-(4-(5-((4-cyanopentyl)oxy)-2-methylphenyl)pyridin-2-yl)-4H-1,2,4-triazole-3-carboxamide] | ≤ 100 nM
28 | Cc1ccc(OCCCCC#N)cc1-c1ccnc(NC(=O)c2nnc(Cc3ccccc3)[nH]2)c1 [Example 91, 5-benzyl-N-(4-(5-(4-cyanobutoxy)-2-methylphenyl)pyridin-2-yl)-4H-1,2,4-triazole-3-carboxamide] | ≤ 100 nM
29 | COc1cccc(C)c1-c1ccnc(NC(=O)c2nnc(Cc3ccccc3)[nH]2)c1 [Example 92, 5-benzyl-N-(4-(2-methoxy-6-methylphenyl)pyridin-2-yl)-4H-1,2,4-triazole-3-carboxamide] | 100 to 1000 nM
